The values below come from patent US12617783B2, “Heterocyclic GLP-1R agonists” (BIOMEA FUSION, INC., priority 2024, dated 2026).

The target of the assay is T1, human GLP-1R (Homo sapiens, UniProt P43220).
T1 construct: host or cells: HEK293
T1 sequence (P43220 24-463): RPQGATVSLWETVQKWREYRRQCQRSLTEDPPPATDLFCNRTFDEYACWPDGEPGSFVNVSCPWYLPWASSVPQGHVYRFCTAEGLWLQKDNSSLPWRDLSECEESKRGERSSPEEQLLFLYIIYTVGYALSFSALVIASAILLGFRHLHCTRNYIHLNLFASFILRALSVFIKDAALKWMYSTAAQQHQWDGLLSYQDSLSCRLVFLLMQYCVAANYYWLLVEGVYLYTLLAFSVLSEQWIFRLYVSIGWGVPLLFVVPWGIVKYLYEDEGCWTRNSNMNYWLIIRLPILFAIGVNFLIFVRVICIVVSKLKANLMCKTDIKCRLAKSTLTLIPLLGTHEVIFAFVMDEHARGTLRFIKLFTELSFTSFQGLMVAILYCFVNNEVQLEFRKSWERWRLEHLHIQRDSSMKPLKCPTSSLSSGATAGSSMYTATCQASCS
Briefly: GLP-1R cAMP assay (Example B1a, HTRF, 30 min at room temperature). The note with it: cAMP accumulation in HEK293 expressing human GLP-1R, no BETP, 30 min room temperature (Method B1a, compounds ID 1-609), Table 1; read-out: EC50. It is filed as cell-based. The gist of the method: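 Competitive HTRF read-out of cAMP after 30 min room-temperature stimulation, BETP absent, of human GLP-1R-HEK293 cells (1,000/well) in HEPES buffer with 500 μM IBMX and 0.1% BSA. Activation normalised to GLP-1(7-37) positive control. EC50 from 4-parameter non-linear regression.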
With `Cc1cc(-n2nc3c(c2-n2ccn(-c4ccc5c(cnn5C)c4F)c2=O)[C@@H]2CC[C@H](C3)N2C(=O)c2cc3cc(C4CCOC(C)(C)C4)cnc3n2[C@@]2(c3noc(=O)[nH]3)C[C@@H]2C)cc(C)c1F` (stereo partly drawn) [Compound 311, 3-((1S,2S)-1-(5-(2,2-dimethyltetrahydro-2H-pyran-4-yl)-2-((4S,7R)-3-(3-(4-fluoro-1-methyl-1H-indazol-5-yl)-2-oxo-2,3-dihydro-1H-imidazol-1-yl)-2-(4-fluoro-3,5-dimethylphenyl)-2,4,5,6,7,8-hexahydro-4,7-epiminocyclohepta [c]pyrazole-9-carbonyl)-1H-pyrrolo[2,3-b]pyridin-1-yl)-2-methylcyclopropyl)-1,2,4-oxadiazol-5(4H)-one], the 50% effective concentration (EC50) stood at 57.3 nM.
Consider `Cc1cc(-n2nc3c(c2-n2ccn(-c4ccc5c(cnn5C)c4F)c2=O)[C@@H]2CC[C@H](C3)N2C(=O)c2cc3cc([C@@H]4CCOC(C)(C)C4)cnc3n2[C@@]2(c3noc(=O)[nH]3)C[C@@H]2C)cc(C)c1F` [Compound 312, 3-((1S,2S)-1-(5-((R)-2,2-dimethyltetrahydro-2H-pyran-4-yl)-2-((4S,7R)-3-(3-(4-fluoro-1-methyl-1H-indazol-5-yl)-2-oxo-2,3-dihydro-1H-imidazol-1-yl)-2-(4-fluoro-3,5-dimethylphenyl)-2,4,5,6,7,8-hexahydro-4,7-epiminocyclohepta [c]pyrazole-9-carbonyl)-1H-pyrrolo[2,3-b]pyridin-1-yl)-2-methylcyclopropyl)-1,2,4-oxadiazol-5(4H)-one], for which the 50% effective concentration (EC50) stood at 1340 nM.
Then `Cc1cc(-n2nc3c(c2-n2ccn(-c4ccc5c(cnn5C)c4F)c2=O)[C@@H]2CC[C@H](C3)N2C(=O)c2cc3cc([C@H]4CCOC(C)(C)C4)cnc3n2[C@@]2(c3noc(=O)[nH]3)C[C@@H]2C)cc(C)c1F` [Compound 313, 3-((1S,2S)-1-(5-((S)-2,2-dimethyltetrahydro-2H-pyran-4-yl)-2-((4S,7R)-3-(3-(4-fluoro-1-methyl-1H-indazol-5-yl)-2-oxo-2,3-dihydro-1H-imidazol-1-yl)-2-(4-fluoro-3,5-dimethylphenyl)-2,4,5,6,7,8-hexahydro-4,7-epiminocyclohepta [c]pyrazole-9-carbonyl)-1H-pyrrolo[2,3-b]pyridin-1-yl)-2-methylcyclopropyl)-1,2,4-oxadiazol-5 (4H)-one], with 18.7 nM.
With `Cc1cc(-n2nc3c(c2-n2ccn(-c4ccc5c(cnn5C)c4F)c2=O)[C@@H]2CC[C@H](C3)N2C(=O)c2cc3ccc([C@H]4CCOC(C)(C)C4)cc3nc2[C@@]2(c3noc(=O)[nH]3)C[C@@H]2C)cc(C)c1F` [Compound 318, 3-[(1R,2S)-1-[7-[(4S)-2,2-dimethyltetrahydropyran-4-yl]-3-[(1S,8R)-4-(4-fluoro-3,5-dimethyl-phenyl)-3-[3-(4-fluoro-1-methyl-indazol-5-yl)-2-oxo-imidazol-1-yl]-4,5,11-triazatricyclo[6.2.1.02,6]undeca-2,5-diene-11-carbonyl]-2-quinolyl]-2-methyl-cyclopropyl]-4H-1,2,4-oxadiazol-5-one], the concentration giving a half-maximal response (EC50) is 870 nM.
Regarding `Cc1cc(-n2nc3c(c2-n2ccn(-c4ccc5c(cnn5C)c4F)c2=O)[C@@H]2CC[C@H](C3)N2C(=O)c2cc3ccc([C@@H]4CCOC(C)(C)C4)cc3nc2[C@@]2(c3noc(=O)[nH]3)C[C@@H]2C)cc(C)c1F` [Compound 319, 3-[(1R,2S)-1-[7-[(4R)-2,2-dimethyltetrahydropyran-4-yl]-3-[(1S,8R)-4-(4-fluoro-3,5-dimethyl-phenyl)-3-[3-(4-fluoro-1-methyl-indazol-5-yl)-2-oxo-imidazol-1-yl]-4,5,11-triazatricyclo[6.2.1.02,6]undeca-2,5-diene-11-carbonyl]-2-quinolyl]-2-methyl-cyclopropyl]-4H-1,2,4-oxadiazol-5-one], the EC50 amounted to 469 nM.
